Values after ≈ are worked out from the molar mass of the structure shown. Active and inactive are the calls of the source. The calls are words filed in the database; no cut-off is given here.
Experiments:
[1] = Clearance in dog; format: ADME, organism-based, Canis lupus familiaris; conditions: in vivo
[2] = Half life in dog; format: ADME, organism-based, Canis lupus familiaris; conditions: in vivo
[3] = Oral bioavailability in dog; format: ADME, organism-based, Canis lupus familiaris; conditions: in vivo
[4] = Aqueous solubility of compound; format: physicochemical
Mus musculus [5] = assay: Inhibition of STAT5 phosphorylation in NCr mouse tansplanted with TEL-JAK2 expressing mouse BA/F3 cells at 10 mg/kg, po upto 2 hrs; format: functional, organism-based; parameters: dose 10 mg/kg; conditions: BaF3
Mus musculus [6] = assay: Inhibition of STAT5 phosphorylation in NCr mouse tansplanted with TEL-JAK2 expressing mouse BA/F3 cells at 10 mg/kg, po measured at 6 hrs; format: functional; conditions: BaF3, 6 h
Mus musculus [7] = assay: Inhibition of STAT5 phosphorylation in NCr mouse tansplanted with TEL-JAK2 expressing mouse BA/F3 cells at 5 mg/kg, po upto 2 hrs; format: functional, organism-based; parameters: dose 5 mg/kg; conditions: BaF3
Mus musculus [8] = assay: Inhibition of STAT5 phosphorylation in NCr mouse tansplanted with TEL-JAK2 expressing mouse BA/F3 cells at 5 mg/kg, po measured at 6 hrs; format: functional; conditions: BaF3, 6 h
Mus musculus [9] = assay: Inhibition of STAT5 phosphorylation in NCr mouse tansplanted with TEL-JAK2 expressing mouse BA/F3 cells at 2.5 mg/kg, po upto 2 hrs; format: functional, organism-based; parameters: dose 2.5 mg/kg; conditions: BaF3
[10] = Plasma concentration in NCr mouse tansplanted with TEL-JAK2 expressing mouse BA/F3 cells at 10 mg/kg, po after 2 hrs; format: ADME, organism-based, BaF3; parameters: dose 10 mg/kg, route oral
[11] = Plasma concentration in NCr mouse tansplanted with TEL-JAK2 expressing mouse BA/F3 cells at 10 mg/kg, po after 6 hrs; format: ADME, organism-based, BaF3; parameters: dose 10 mg/kg, route oral
[12] = Fraction unbound in human plasma; format: ADME, cell-free
[13] = Free drug level in plasma of NCr mouse tansplanted with TEL-JAK2 expressing mouse BA/F3 cells at 10 mg/kg, po after 6 hrs; format: ADME, organism-based, BaF3; parameters: dose 10 mg/kg, route oral; conditions: in vivo
[14] = Intrinsic clearance in Han Wistar rat microsomes at 10 mg/kg, po and 3 mg/kg, iv; format: ADME, Microsome
[15] = Clearance in Han Wistar rat at 10 mg/kg, po and 3 mg/kg, iv; format: ADME, organism-based; conditions: in vivo
[16] = Half life in Han Wistar rat at 10 mg/kg, po and 3 mg/kg, iv; format: ADME, organism-based; conditions: in vivo
[17] = Volume of distribution at steady state in Han Wistar rat at 10 mg/kg, po and 3 mg/kg, iv; format: ADME, organism-based; conditions: in vivo, read-out: Vdss
[18] = Oral bioavailability in Han Wistar rat at 10 mg/kg; format: ADME, organism-based; conditions: in vivo
[19] = molecular target: T1, Tyrosine-protein kinase JAK2 (Homo sapiens, UniProt O60674); assay: Inhibition of JAK2 after 60 min
T1 sequence (O60674 whole entry): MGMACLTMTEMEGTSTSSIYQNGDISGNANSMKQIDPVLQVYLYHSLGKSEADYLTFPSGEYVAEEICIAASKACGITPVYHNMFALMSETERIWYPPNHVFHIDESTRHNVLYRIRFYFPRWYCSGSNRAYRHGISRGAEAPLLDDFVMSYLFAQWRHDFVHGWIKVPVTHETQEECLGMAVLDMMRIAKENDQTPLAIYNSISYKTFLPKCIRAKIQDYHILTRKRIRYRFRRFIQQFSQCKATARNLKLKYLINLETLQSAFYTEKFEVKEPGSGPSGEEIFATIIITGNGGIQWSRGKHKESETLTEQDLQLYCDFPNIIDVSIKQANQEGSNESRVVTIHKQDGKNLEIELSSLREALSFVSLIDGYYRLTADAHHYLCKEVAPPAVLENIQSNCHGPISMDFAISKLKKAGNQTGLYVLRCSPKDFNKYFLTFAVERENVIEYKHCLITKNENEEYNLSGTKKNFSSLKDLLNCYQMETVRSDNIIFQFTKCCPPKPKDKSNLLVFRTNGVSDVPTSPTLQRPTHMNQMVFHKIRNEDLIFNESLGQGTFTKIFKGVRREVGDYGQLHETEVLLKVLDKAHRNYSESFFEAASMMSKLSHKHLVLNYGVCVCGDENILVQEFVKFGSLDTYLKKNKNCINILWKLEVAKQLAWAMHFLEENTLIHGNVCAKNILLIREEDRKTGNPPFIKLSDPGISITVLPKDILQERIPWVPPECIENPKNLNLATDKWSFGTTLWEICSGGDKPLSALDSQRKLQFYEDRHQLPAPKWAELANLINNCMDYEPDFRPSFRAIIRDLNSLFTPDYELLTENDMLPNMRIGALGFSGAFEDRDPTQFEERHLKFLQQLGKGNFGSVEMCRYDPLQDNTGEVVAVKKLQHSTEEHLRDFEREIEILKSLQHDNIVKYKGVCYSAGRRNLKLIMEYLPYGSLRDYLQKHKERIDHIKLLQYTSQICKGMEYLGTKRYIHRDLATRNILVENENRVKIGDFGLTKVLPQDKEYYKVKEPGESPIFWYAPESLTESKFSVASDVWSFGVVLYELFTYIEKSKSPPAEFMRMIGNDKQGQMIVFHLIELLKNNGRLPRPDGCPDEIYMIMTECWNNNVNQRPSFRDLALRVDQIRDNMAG

[20] = molecular target: T2, Tyrosine-protein kinase JAK3 (Homo sapiens, UniProt P52333); assay: Inhibition of JAK3 after 60 min
T2 sequence (P52333 whole entry): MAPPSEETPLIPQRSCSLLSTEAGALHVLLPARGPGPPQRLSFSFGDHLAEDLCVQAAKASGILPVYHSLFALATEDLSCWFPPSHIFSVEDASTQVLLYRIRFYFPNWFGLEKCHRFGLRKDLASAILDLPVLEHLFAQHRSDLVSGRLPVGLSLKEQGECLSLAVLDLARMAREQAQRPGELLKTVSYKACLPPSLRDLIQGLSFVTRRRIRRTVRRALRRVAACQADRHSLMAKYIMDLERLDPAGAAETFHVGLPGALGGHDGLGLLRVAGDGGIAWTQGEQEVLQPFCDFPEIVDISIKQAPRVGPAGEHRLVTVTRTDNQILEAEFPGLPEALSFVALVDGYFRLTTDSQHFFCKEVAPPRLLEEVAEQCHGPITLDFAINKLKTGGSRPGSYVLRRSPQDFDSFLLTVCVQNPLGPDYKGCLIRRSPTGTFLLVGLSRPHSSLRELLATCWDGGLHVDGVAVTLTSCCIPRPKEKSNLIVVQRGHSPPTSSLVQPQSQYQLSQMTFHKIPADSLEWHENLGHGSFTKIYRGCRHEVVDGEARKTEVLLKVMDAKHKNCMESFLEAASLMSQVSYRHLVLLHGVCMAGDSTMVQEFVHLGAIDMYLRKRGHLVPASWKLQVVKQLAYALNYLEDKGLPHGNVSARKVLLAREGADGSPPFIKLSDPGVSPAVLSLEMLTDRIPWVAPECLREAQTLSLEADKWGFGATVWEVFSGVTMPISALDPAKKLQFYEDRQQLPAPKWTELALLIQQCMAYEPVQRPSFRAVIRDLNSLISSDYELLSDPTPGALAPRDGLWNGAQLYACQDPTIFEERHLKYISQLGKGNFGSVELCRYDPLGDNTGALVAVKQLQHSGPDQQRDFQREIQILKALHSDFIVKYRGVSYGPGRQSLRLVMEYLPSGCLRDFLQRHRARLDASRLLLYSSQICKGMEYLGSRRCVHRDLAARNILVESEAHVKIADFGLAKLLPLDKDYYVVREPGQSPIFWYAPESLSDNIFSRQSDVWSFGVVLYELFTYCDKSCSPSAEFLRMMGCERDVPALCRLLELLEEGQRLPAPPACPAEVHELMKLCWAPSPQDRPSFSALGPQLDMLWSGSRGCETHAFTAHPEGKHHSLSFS

[21] = molecular target: T1, Tyrosine-protein kinase JAK2; assay: Inhibition of TEL-fused JAK2-induced proliferation of mouse BA/F3 cells; format: cell-based; conditions: BaF3
[22] = molecular target: T3, Tyrosine-protein kinase JAK3 (Homo sapiens) (UniProt P52333); assay: Inhibition of TEL-fused JAK3-induced proliferative activity against mouse BA/F3 cells; format: cell-based; conditions: BaF3
T3 sequence (whole entry): T2 sequence (P52333 whole entry)

[23] = molecular target: T1, Tyrosine-protein kinase JAK2; assay: Inhibition of human JAK2
[24] = molecular target: T4, High affinity nerve growth factor receptor (Homo sapiens, UniProt P04629); assay: Inhibition of human TRKA
Target sequence in this assay (P04629 whole entry): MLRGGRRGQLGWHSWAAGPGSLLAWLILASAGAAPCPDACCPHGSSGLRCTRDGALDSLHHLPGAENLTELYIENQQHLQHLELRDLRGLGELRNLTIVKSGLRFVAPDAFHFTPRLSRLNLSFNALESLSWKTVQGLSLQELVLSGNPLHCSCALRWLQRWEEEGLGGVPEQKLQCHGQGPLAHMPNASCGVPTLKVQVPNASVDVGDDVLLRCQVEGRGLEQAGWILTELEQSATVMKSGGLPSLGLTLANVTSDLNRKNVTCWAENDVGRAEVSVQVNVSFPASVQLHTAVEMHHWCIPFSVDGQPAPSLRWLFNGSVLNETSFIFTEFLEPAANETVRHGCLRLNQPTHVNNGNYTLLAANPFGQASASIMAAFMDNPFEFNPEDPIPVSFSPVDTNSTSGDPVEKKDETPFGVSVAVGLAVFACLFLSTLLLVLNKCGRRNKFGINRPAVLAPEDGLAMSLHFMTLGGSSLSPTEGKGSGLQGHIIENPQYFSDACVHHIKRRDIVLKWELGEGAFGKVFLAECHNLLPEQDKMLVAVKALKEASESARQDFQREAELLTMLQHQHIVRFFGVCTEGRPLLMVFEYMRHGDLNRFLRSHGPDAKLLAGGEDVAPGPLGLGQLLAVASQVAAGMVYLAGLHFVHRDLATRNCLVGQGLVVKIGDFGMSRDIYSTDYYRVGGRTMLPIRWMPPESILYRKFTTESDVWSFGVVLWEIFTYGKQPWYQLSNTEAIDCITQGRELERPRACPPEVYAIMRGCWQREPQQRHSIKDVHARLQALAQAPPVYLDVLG

[25] = molecular target: T2, Tyrosine-protein kinase JAK3; assay: Inhibition of human JAK3
[26] = molecular target: Receptor-type tyrosine-protein kinase FLT3 (Homo sapiens, UniProt P36888, D835Y); assay: Inhibition of human FLT3 D835Y mutant
[27] = molecular target: Tyrosine-protein kinase Lck (Homo sapiens, UniProt P06239); assay: Inhibition of human Lck
Chain of Tyrosine-protein kinase Lck (P06239 whole entry): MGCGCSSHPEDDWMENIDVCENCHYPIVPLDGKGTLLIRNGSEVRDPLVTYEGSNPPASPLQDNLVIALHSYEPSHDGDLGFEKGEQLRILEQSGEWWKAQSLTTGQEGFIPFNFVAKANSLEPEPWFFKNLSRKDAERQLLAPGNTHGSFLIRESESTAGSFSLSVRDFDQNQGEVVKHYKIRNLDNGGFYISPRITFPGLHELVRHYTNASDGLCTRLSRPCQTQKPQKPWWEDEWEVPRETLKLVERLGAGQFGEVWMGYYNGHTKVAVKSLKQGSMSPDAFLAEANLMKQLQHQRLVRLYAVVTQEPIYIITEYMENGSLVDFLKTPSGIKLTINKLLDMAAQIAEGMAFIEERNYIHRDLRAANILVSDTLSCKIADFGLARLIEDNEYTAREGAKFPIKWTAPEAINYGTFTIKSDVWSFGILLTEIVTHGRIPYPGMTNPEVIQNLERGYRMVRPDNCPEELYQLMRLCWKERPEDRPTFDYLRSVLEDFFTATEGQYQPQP

[28] = molecular target: T5, Muscle, skeletal receptor tyrosine-protein kinase (Homo sapiens, UniProt O15146); assay: Inhibition of human MuSk
T5 sequence (O15146 whole entry): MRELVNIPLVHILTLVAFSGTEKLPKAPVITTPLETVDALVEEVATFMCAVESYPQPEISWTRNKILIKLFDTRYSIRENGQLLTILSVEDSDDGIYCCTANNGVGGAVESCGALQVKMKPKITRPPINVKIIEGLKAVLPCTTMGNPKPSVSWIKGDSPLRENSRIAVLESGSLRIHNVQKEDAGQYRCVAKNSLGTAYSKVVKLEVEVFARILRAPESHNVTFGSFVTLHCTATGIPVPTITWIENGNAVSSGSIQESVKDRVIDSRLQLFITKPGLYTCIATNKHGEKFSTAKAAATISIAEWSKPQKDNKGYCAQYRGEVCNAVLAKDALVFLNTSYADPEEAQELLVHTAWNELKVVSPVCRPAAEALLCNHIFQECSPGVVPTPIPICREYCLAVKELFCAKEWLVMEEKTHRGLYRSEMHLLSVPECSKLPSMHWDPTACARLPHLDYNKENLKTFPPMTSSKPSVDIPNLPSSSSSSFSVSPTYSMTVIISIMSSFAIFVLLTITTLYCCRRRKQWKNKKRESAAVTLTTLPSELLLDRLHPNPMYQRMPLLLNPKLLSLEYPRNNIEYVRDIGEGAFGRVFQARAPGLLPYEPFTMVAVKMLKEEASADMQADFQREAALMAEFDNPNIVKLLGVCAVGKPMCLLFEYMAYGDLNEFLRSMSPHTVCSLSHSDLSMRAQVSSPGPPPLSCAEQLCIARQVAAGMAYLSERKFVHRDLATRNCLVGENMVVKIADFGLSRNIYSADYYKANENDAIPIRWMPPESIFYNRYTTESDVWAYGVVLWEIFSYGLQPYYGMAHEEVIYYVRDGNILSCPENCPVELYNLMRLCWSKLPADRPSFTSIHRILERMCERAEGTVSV

Ephrin type-B receptor 2 = molecular target: T6, Ephrin type-B receptor 2 (Homo sapiens, UniProt P29323); assay: Inhibition of human EphB2
T6 sequence (P29323 whole entry): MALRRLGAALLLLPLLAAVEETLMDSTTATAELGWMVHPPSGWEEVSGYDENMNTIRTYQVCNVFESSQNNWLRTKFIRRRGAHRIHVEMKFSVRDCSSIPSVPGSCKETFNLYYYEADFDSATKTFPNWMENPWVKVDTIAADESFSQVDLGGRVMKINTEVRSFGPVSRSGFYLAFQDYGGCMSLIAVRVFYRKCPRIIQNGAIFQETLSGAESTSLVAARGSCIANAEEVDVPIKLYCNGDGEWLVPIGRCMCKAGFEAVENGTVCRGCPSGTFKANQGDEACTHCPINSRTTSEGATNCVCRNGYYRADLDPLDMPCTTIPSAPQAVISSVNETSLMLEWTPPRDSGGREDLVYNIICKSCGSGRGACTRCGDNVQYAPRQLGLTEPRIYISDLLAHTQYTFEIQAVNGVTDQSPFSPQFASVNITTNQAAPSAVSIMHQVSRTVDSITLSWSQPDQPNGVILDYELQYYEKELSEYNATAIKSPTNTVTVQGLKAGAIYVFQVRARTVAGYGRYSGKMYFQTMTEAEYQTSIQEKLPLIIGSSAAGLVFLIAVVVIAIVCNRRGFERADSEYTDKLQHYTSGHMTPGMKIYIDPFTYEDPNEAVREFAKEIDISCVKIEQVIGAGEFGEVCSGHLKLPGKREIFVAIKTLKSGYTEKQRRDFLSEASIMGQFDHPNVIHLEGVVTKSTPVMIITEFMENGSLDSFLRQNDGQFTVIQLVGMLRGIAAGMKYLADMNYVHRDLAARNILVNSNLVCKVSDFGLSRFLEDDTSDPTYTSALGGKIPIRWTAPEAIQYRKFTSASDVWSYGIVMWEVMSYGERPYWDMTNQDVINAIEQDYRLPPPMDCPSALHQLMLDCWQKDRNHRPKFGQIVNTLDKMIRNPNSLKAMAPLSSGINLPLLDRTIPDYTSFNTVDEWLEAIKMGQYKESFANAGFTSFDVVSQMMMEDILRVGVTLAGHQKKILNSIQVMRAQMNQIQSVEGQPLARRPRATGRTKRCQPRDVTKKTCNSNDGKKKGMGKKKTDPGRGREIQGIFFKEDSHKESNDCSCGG

[29] = molecular target: T4, High affinity nerve growth factor receptor; assay: Inhibition of human truncated TrkA in human MCF10a cells by time-resolved fluorimetry; format: cell-based
Target sequence in this assay (P04629 33-796 limits assumed): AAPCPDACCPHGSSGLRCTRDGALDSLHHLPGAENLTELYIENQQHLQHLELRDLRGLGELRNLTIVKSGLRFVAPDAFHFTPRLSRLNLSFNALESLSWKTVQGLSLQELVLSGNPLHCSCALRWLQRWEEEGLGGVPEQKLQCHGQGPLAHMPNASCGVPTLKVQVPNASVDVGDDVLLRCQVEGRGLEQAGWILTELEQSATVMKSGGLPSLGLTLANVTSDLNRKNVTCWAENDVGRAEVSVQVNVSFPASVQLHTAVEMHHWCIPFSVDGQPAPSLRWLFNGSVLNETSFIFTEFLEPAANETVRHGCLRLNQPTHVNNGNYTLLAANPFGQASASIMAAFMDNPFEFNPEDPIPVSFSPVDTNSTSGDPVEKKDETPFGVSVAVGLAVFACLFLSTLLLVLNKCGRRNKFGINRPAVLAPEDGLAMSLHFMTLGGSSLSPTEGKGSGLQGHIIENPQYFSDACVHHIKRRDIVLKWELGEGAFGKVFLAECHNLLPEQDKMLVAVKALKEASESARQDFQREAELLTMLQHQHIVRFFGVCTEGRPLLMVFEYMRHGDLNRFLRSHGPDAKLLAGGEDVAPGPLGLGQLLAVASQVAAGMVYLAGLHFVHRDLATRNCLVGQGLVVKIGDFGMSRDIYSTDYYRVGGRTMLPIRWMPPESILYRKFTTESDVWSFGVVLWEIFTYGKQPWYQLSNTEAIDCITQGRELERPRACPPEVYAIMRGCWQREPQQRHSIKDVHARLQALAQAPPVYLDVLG

[30] = Growth inhibition of human SET2 cells expressing JAK2 V617F mutant after 48 hrs by alamar blue assay; format: functional; conditions: SET-2, 48 h

Row | solubility [4] [µM] | microsomal CLint [14] [µL/min/mg] | clearance [15] [mL/min/kg] | half-life [16] [h] | Vd [17] [L/kg] | bioavailability [18] [%] | IC50 [19] [nM] | IC50 [20] [nM] | GI50 [21] [nM] | GI50 [22] [nM] | SMILES | further results
1 | 303 (≈ 108 µg/mL) | 5 | 4.8 | 2.2 | 0.84 | 39 | < 3 | 7 | 36 | 1300 | Cc1cc(Nc2nc(N[C@@H](C)c3ccc(F)cn3)c(C#N)cc2F)n[nH]1 | clearance [1]: 7.4 mL/min/kg; half-life [2]: 3.6 h; bioavailability [3]: 100%; inhibition (Mus musculus [5]): Active; inhibition in vivo at 10 mg/kg (Mus musculus [6]): 54%; inhibition (Mus musculus [7]): Active; inhibition in vivo at 5 mg/kg (Mus musculus [8]): 54%; inhibition (Mus musculus [9]): Active; concentration at 2 h [10]: 1100 ng/mL; concentration at 6 h [11]: 328 ng/mL; fraction unbound [12]: 0.053; Cp(f) [13]: 49 nM; IC50 [23]: < 1 nM; IC50 [24]: 3 nM; IC50 [25]: 15 nM; IC50 [26]: 82 nM; IC50 [27]: 215 nM; IC50 [28]: 224 nM; IC50 (Ephrin type-B receptor 2): > 10000 nM; IC50 [29]: 276 nM
2 | 13 (≈ 4.61 µg/mL) | 17 | 7.5 | 5.7 | 2.6 | 44 | < 3 | 9 | 24 | 350 | Cc1cc(Nc2nc(N[C@@H](C)c3ccc(F)cc3)c(C#N)cc2F)n[nH]1 | GI50 [30]: 33 nM
3 | 100 (≈ 37.2 µg/mL) | 5 | 2.3 | 2.7 | 0.52 | 47 | < 3 | 21 | 40 | 430 | Cc1cc(Nc2nc(N[C@@H](C)c3ccc(F)cn3)c(C#N)cc2Cl)n[nH]1 | 
4 |  |  |  |  |  |  | 688 | 1740 |  |  | CC(C)Oc1cc(Nc2nc(N[C@@H](C)c3ccc(F)cc3)c(C#N)cc2F)n[nH]1 | 
5 |  |  |  |  |  |  | 3 | 183 | 170 | 1000 | C[C@H](Nc1nc(Nc2cc(C3CC3)[nH]n2)c(F)cc1C#N)c1ccc(F)cc1 | 
